Assay results reported in patent US6989397B1, “Iron chelators and uses thereof” (University of Queensland, priority 1999, dated 2006).
Where “and” joins values, the source holds several entries; their conditions need not be identical. Equal values may be shown once. Read-outs that look alike come from different tables or passages of the source.

How the values were obtained:
[1] = tested on: SK-N-MC neuroepithelioma cells; test: 59Fe release from prelabelled cells (iron efflux); format: cell-based, human; conditions: DFO 100 μM; for % Cellular Iron Released: labelled 3 h with 59Fe-transferrin 0.75 μM, reincubated 3 h at 37° C., chelators 50 μM, Mean±SD; for release of cellular 59Fe (FIG. 2A): 3 hr labelling, 3 hr reincubation, ligands 50 μM, FIG. 2A screening experiment
Method: (§1) The effect of chelators on ^59Fe uptake from ^59Fe-Tf and ^59Fe release from prelabelled cells was studied using standard procedures reported previously (Richardson et al., 1994, J. Lab Clin. Med. 124 660–71). The amount of ^59Fe internalized by the cells was measured by incubation with the general protease pronase (1 mg/ml) for 30 min at 4° C. to remove membrane-bound ^59Fe and Tf (Richardson et al., 1990; Baker et al., 1998, Biochim. Biophys. Acta 1380 21–30).
The efflux of ^59Fe from SK-N-MC cells was examined after a 3 hr labelling period with ^59Fe-Tf (0.75 μM) followed by a 3 hr reincubation in the presence and absence of DFO (100 μM) or the remainder of the ligands at 50 μM (FIG. 2A).
(§2) Table 1. The effect of DFO, 311, PCTH, PCBH, or PCBHH on ^59Fe release from BE-2 neuroblastoma cells, SK-N-MC neuroepithelioma cells, and SK-Mel-28 melanoma cells. Cells were labeled for 3 h at 37° C. with ^59Fe-transferrin (0.75 μM), washed, and then reincubated with the chelators for 3 h at 37° C. […] Results are Mean±SD of three determinations in a typical experiment.

BE-2 neuroblastoma cells [2] = test: 59Fe release from prelabelled cells (iron efflux); format: cell-based; conditions: labelled 3 h with 59Fe-transferrin 0.75 μM, reincubated 3 h at 37° C., chelators 50 μM, DFO 100 μM, Mean±SD
Method: as §1, §2

BE-2 neuroblastoma cells [3] = test: internalized 59Fe uptake from 59Fe-transferrin; format: cell-based; conditions: 59Fe-transferrin 0.75 μM, 3 h at 37° C., chelators 50 μM, DFO 100 μM, mean±SD
Method: as §1
Table 2. The effect of DFO, 311, PCTH, PCBH, or PCBHH on internalized ^59Fe uptake from ^59Fe-transferrin by BE-2 neuroblastoma cells, SK-N-MC neuroepithelioma cells, and SK-Mel-28 melanoma cells. Cells were incubated with the chelators and ^59Fe-transferrin (0.75 μM) for 3 h at 37° C., washed, and incubated for 30 min at 4° C. with pronase (1 mg/ml) to separate the internalized from the membrane-bound ^59Fe. All chelators were screened at a concentration of 50 μM except for DFO which was examined at 100 μM. Results are mean±SD (three determinations) from a typical experiment.

[4] = tested on: SK-N-MC neuroepithelioma cells; test: cellular proliferation, MTT assay; format: cell-based, human; conditions: 90 h incubation, chelators 0.39–50 μM, read-out: IC50, inhibition of growth of SK-N-MC cells
Method: FIG. 4. The effect of chelator concentration on the proliferation of SK-N-MC neuroepithelioma cells. Cells were incubated in the presence and absence of the chelators (0–50 μM) for 90 h at 37° C. After this incubation period, cellular density was measured via the MTT assay. Each data point represents the mean of four replicates in a typical experiment of two experiments performed.
The effects of the chelators on the proliferation of SK-N-MC neuroepithelioma cells were examined using the MTT (3-(4,5-dimethylthiazol-2-yl)-2,5-diphenyltetrazolium) assay by essentially the same method as described previously (Richardson et al., 1995). Cellular proliferation was examined by seeding cells in 96-well microtitre plates at 15,000 cells/well in 0.1 mL of complete medium containing human diferric Tf (1.25 μM). […] The cells were allowed to grow overnight and the chelators were then added in 0.1 mL of complete medium containing differic transferrin (1.25 μM). The final concentrations of the chelators were 0.39–50 μM. Control samples contained complete medium and diferric Tf (1.25 μM). Cells were incubated with the chelators for 90 hrs at 37° C. in a humidified atmosphere containing 95% air and 5% CO2. After this incubation, 0.01 mL of MTT was added to each well and the plates incubated for 2 hrs at 37° C. The cells were solubilized by adding 0.1 mL of 10% SDS-50% isobutanol in 0.01 M HCl and the plates were read at 570 nm on a scanning multiwell spectrophotometer (Titertek Multiscan; Beckman Instruments Inc., California). As shown previously for the SK-N-MC cell line, MTT colour formation was directly proportional to the number of viable cells (Richardson et al., 1995).

GADD45 mRNA = test: Northern blot analysis of mRNA levels; format: cell-based, human; conditions: SK-N-MC cells, 20 h; chelators 25 μM, DFO 100 μM
Method: (§3) FIG. 6. The effect of the chelators on mRNA levels of GADD45, WAF1 and β-actin in SK-N-MC neuroepithelioma cells. Total RNA was extracted from cells after a 20 h incubation with medium alone (control) or medium containing ferric ammonium citrate (100 μg/mL), DFO (100 μM), or the other chelators (25 μM). The isolated RNA was then electrophoresed on a 1.2% agarose-formaldehyde gel, transferred to a hybridisation membrane, and probed under high stringency conditions.
(§4) Northern blot analysis was performed by isolating total RNA using the Total RNA isolation Reagent from Advanced Biotechnologies Ltd (Surrey, United Kingdom). The RNA (15 μg) was heat denatured at 90° C. for 2 mins in RNA-loading buffer and then loaded onto a 1.2% agarose-formaldehyde gel. After electrophoresis, RNA was transferred to a nylon membrane (GeneScreen, New England Nuclear, Boston, USA) in 10×SSC using the capillary blotting method. The RNA was then cross-linked to the membrane using a UV-crosslinker (UV Stratalinker 1800, Stragene Ltd., USA).
(§5) The membranes were hybridized with probes specific for human WAF1, GADD-45 and β-actin. The WAF1 probe consisted of a 1 kb fragment from pSXV(ATTC: Cat. No. 79928). The GADD45 probe consisted of a 760 bp fragment from human GADD45 cDNA cloned into pHu145B2 (kindly supplied by Dr. Albert Fornace, National Cancer Institute, NIH, Maryland). The β-actin probe consisted of a 1.4 kb fragment from human β-actin cDNA cloned into pBluescript SK-(ATTC: at. No 37997).
(§6) Hybridization of probes to the membranes and their subsequent washing were performed as described by Mahmoudi and Lin, 1989, Biotechniques 7, 331–2 using a Hybaid Shake and Stack Hybridization oven (Hybaid Ltd., Middlesex, UK). The membranes were then exposed to Kodak XAR Films at −70° C. with an intensifying screen. The probes were stripped from the nylon membrane by boiling in a solution containing 10 mM Tris-HCl (pH 7.0). 1 mM EDTA (pH 8.0) and 1% SDS for 15–30 mins as described by the membrane manufacturer. Densitometric data were collected with a Laser Densitometer and analyzed by Kodak Biomax Software (Kodak Ltd, USA).

WAF1 mRNA = test: Northern blot analysis of mRNA levels; format: cell-based, human; conditions: SK-N-MC cells, 20 h; chelators 25 μM, DFO 100 μM
Method: as §3, §4, §5, §6

IC50 [4] [µM] | SMILES | % Cellular Iron Released [1] [%] | % Cellular Iron Released (BE-2 neuroblastoma cells [2]) [%] | Internalised Iron Uptake (% Control) (BE-2 neuroblastoma cells [3]) | level of GADD45 mRNA (FIG. 6) (GADD45 mRNA) | level of WAF1 mRNA (FIG. 6) (WAF1 mRNA) | release of cellular 59Fe (FIG. 2A) [1] | IC50 ([4]; Homo sapiens, SK-N-MC) [µM]
2 | O=C(NN=Cc1c(O)ccc2ccccc12)c1ccncc1 [Chelator 311, 2-hydroxy-1-naphthylaldehyde isonicotinoyl hydrazone, reference compound] | 49 ± 1 | 52 ± 1 | 8 ± 1 % Control | increase | increase |  | 
 | CC(=O)N(O)CCCCCNC(=O)CCC(=O)N(O)CCCCCNC(=O)CCC(=O)N(O)CCCCCN [DFO, desferrioxamine, reference compound] | 18 ± 3 | 44 ± 2 | 42 % Control and 42 ± 3 % Control |  |  | 19% | 47
 | O=C(NN=Cc1ccco1)c1ccncc1 [FIH, 2furoylcarboxaldehyde isonicotinoyl hydrazone] |  |  |  |  |  | did not appreciably increase | 
50 | O=C(NN=Cc1ccccn1)c1ccccc1 [PCBH, 2-pyridylcarboxaldehyde benzoyl hydrazone] | 47 ± 3 | 44 ± 1 | 25 ± 4 % Control | did not have any effect | did not have any effect |  | 
 | O=C(NN=Cc1ccccn1)c1cccs1 [PCTH, 2-pyridylcarboxaldehyde 2-thiophenecarboxyl hydrazone] | 51 ± 5 | 50 ± 1 | 25 ± 3 % Control | did not have any effect | did not have any effect |  | 
